Experimental data reported in article PMC6382696, “Drug Repurposing: The Anthelmintics Niclosamide and Nitazoxanide Are Potent TMEM16A Antagonists That Fully Bronchodilate Airways” (Frontiers in Pharmacology, 2019).

Legend:
TMEM16A (acd) = biological target: T1, TMEM16A (acd) (Homo sapiens, UniProt Q5XXA6); assay: QPatch whole-cell electrophysiology, HEK293 TMEM16A (acd); assay type: cell-based; details: supplement; 170 nM free intracellular calcium; read-out: IC50 for blocking the TMEM16A outward current, QPatch
T1 sequence (Q5XXA6 1-986): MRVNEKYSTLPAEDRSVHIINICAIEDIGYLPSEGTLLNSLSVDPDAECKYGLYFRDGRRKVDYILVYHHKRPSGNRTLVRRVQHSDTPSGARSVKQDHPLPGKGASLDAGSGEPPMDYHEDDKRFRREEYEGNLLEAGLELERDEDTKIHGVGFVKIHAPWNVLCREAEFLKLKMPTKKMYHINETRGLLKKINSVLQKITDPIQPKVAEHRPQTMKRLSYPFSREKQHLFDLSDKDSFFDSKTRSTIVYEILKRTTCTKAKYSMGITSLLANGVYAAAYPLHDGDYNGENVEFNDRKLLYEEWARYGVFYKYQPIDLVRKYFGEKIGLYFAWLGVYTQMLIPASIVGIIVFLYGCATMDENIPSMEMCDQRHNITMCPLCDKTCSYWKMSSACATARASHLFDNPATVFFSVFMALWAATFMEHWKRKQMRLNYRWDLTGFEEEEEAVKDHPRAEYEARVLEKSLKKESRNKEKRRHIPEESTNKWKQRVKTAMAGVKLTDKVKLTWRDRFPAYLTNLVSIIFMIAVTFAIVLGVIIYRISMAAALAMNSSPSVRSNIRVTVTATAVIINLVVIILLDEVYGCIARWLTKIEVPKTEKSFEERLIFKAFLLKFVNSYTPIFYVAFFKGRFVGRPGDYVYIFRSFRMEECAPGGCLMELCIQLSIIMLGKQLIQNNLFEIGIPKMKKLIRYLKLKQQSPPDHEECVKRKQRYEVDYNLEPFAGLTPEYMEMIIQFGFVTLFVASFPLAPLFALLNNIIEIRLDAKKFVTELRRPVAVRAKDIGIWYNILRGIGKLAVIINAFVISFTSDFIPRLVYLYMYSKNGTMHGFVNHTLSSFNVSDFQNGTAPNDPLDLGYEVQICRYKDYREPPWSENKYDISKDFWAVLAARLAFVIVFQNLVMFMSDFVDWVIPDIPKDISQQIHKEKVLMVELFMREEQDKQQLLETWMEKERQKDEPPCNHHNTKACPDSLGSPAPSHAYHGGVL
Description: HEK293 cells stably expressing the TMEM16A (acd) variant were purchased from SB Drug Discovery. The HEK293 TMEM16A (abc) stable cell line was from ChanTest and COLO-205 cells were purchased from ATCC. The same standard buffers and recording conditions listed below were used for QPatch studies on all three cell lines.
Recording Solutions: were made weekly as below and stored at room temperature until used. It is recommended not to add ATP to internal solution until immediately before using on the QPatch. The external buffer (in mM) was 140 NaCl, 4 KCl, 2 CaCl2, 1 MgCl2, 10 HEPES, 10 Glucose, pH7.4, while the internal buffer (in mM) was 110 CsCl, 20 TEA-Cl, 5.374 CaCl2, 1.75 MgCl2, 10 EGTA, 10 HEPES, 4 Na2ATP, pH 7.2.
Once established in whole-cell configuration, cells were clamped to a holding potential (Vhold) of 0 mV on 48 well single hole patch plate. A standardized IV protocol was used to elicit ionic current through the TMEM16A chloride channel at 20 s intervals. Steady-state voltage pulses were from −100 mV to +100 mV in +20 mV steps for a duration of 500 ms. After each pulse the voltage was returned to −100 mV for 50 ms to obtain tail currents, and then returned to the holding potential of 0 mV until the beginning of the next sweep. […] This ensures a minimum of 60 s per concentration incubation before measuring current block. Currents were acquired at 10 kHz and filtered at 2 kHz, leak subtraction and Rseries were disabled. A 1 MΩ minimum resistance was set because cells are held in an open channel state and therefore resistance is low.
A cumulative concentration response was measured where each cell is exposed to five concentrations of test article with a dilution factor of 1:5 (e.g., 0.048, 0.24, 1.2, 6, and 30 μM). Cells were recorded for ∼60 s per solution/compound addition. Initially, external solution is applied twice to allow currents to stabilize. Then vehicle (from the saline reservoir) is added twice to monitor any effect 0.3% DMSO might have on currents. This leads directly into the concentration runs by applying Concentration 1 (single addition) for 1 min. Concentration 2 is then applied for the subsequent minute, etc. Recovery/washout was monitored for a final minute with a final external solution addition.
[…] […] Each cell’s current magnitude was then normalized to itself at the initial 0.3% vehicle control period prior to compound application. This step is to account for differences in current size for each cell. Normalized responses to test article were plotted against their concentrations to reveal a concentration-inhibition plot.
A Normalized Group Hill fit was then performed on the plotted results to yield a pooled IC50 value, reconstructed from a minimum of two cells/concentration. The baseline response as well as the full response were constrained to 1 and 0, respectively.

hTMEM16A (abc) = biological target: T2, hTMEM16A (abc) (Homo sapiens, UniProt Q5XXA6, DEL476-501); assay: medchem TMEM16A halide-sensitive YFP assay, 22-point dose-response; assay type: cell-based; parameters: expressed in transfected cells; details: supplement; iodide as permeant anion, maximum concentration 55.6; read-out: TMEM16A eYFP Assay IC50
T2 sequence (Q5XXA6 with tags, fused parts or gaps isoform Q5XXA6-5 DEL539-564): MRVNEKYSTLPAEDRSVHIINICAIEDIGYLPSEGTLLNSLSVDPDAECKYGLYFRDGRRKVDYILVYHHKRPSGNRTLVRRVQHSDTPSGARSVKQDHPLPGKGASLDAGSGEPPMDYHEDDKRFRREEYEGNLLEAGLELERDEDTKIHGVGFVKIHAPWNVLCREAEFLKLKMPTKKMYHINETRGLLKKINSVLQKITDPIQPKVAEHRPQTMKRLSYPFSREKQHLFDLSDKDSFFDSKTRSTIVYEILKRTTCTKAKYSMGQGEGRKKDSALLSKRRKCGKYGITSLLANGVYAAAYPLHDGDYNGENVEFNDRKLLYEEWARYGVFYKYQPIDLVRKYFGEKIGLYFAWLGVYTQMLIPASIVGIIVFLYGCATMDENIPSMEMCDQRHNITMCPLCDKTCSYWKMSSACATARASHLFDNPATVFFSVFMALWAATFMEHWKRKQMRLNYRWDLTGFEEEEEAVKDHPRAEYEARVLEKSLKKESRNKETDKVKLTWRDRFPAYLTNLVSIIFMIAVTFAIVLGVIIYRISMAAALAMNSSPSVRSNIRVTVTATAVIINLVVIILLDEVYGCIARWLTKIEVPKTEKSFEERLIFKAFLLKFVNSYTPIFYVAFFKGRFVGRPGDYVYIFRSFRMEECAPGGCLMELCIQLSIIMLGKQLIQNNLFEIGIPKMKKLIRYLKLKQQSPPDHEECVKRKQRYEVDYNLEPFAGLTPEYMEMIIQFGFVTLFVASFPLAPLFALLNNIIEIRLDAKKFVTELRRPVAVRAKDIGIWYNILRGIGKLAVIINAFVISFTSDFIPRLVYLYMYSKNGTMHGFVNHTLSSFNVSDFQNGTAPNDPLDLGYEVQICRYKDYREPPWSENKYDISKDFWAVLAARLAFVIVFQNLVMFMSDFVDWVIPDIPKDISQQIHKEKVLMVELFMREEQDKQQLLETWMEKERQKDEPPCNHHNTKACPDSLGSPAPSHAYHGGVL
Procedure: The TMEM16A HEK293T eYFP (H149Q, I153L) stable cell line for medchem support was generated by transfecting 10 μg of linearized hTMEM16A(abc) DNA constructs into HEK293T eYFP (H149Q,I153L) stable cells. The transfected cells were cultured under 200 μg/ml of hygromycin B selection for 20 days and the stable pool was single cell seeded in 96 well plate and duplicated plate were made after single cell clones were formed. YFP function assay were performed on duplicated plate and clones producing higher changes in fluorescence from the YFP assay were chosen for further expansion to form a stable cell line.
Plates were incubated for 24 h at 37°C with 5% CO2. On the assay day, medium was removed and replaced with 20 μl/well of assay buffer (Hank’s Balanced Salt Solution with 10 mM HEPES pH 7.4), 10 μl/well of 40x diluted compounds was added to assay plate and it was incubated at room temperature for 30 min, after which baseline fluorescence was read in the FLIPR instrument for 10 s. Then, 5 μl/well of a 3x trigger solution (24 mM iodide, 3 μM ionomycin in assay buffer) was added and the fluorescence kinetic trace was recorded for 2 min.

[1] = tested on: Wnt/β-catenin transcription; details: ref Mook et al. (2015); read-out: Mook et al. Wnt/β-catenin TopFlash (IC50); cited from earlier work
[2] = tested on: Wnt/β-catenin transcription; assay: Wnt/β-catenin transcription TOPFlash reporter assay; assay type: cell-based; details: Wnt TopFlash IC50 over TMEM16A eYFP IC50
human bronchial rings = assay: Wire myograph bronchodilation of histamine pre-contracted human bronchial rings (Biopta)
Description: Details of bronchodilator studies shown in Figure 5H, 6 and Supplementary Figure 40 are provided below as part of the end assay report on Study CUR011 by Lee Christie (Biopta). Donors with any of the following conditions were excluded from the study: asthma, COPD, emphysema, lung cancer, cystic fibrosis, pulmonary fibrosis, pulmonary hypertension, pneumonia. Donors were also excluded if they had smoked in the past 12 months. Non-transplantable lung tissue was acquired from organ donors post mortem. Any macroscopically diseased/necrotic tissue was rejected. […] Human airway rings were set up under isometric conditions on a wire myograph in order to examine the influence of the test articles on bronchodilation. In order to assess tissue viability, the airways were challenged with carbachol (10 μM) and then isoprenaline (10 μM) to assess their constriction and relaxation responses, respectively. […] Viable airways were pre-constricted with histamine (10 μM), then exposed to one of the following cumulative concentration response curves (CCRCs): positive control, vehicle (water, volume matched to positive control), test article, vehicle (DMSO concentration matched to test articles). At the end of each CCRC, theophylline (2.2 mM) was added to induce maximal relaxation of the tissue. […] Airways were re-tensioned to 1.0 – 1.5 g if the tension had dropped below 1.0 g during the first 30 min of equilibration. (b) Airways were exposed to carbachol (bath concentration 10 μM) in order to measure their contractile responses and then isoprenaline (10 μM) in order to assess their relaxation. Airways were washed out and allowed to return to baseline. (c) Airways were pre-constricted with histamine (10 μM) before conducting a CCRC to the test article, the positive control (isoprenaline), test article vehicle or positive control vehicle.

human CFTR = biological target: T3, human CFTR (Homo sapiens, UniProt P13569); assay: IonWorks Barracuda electrophysiology, CFTR chloride current in CHO cells; assay type: cell-based; details: 10 µM compound, CHO CFTR
T3 construct: host or cells: CHO
T3 sequence (P13569 whole entry): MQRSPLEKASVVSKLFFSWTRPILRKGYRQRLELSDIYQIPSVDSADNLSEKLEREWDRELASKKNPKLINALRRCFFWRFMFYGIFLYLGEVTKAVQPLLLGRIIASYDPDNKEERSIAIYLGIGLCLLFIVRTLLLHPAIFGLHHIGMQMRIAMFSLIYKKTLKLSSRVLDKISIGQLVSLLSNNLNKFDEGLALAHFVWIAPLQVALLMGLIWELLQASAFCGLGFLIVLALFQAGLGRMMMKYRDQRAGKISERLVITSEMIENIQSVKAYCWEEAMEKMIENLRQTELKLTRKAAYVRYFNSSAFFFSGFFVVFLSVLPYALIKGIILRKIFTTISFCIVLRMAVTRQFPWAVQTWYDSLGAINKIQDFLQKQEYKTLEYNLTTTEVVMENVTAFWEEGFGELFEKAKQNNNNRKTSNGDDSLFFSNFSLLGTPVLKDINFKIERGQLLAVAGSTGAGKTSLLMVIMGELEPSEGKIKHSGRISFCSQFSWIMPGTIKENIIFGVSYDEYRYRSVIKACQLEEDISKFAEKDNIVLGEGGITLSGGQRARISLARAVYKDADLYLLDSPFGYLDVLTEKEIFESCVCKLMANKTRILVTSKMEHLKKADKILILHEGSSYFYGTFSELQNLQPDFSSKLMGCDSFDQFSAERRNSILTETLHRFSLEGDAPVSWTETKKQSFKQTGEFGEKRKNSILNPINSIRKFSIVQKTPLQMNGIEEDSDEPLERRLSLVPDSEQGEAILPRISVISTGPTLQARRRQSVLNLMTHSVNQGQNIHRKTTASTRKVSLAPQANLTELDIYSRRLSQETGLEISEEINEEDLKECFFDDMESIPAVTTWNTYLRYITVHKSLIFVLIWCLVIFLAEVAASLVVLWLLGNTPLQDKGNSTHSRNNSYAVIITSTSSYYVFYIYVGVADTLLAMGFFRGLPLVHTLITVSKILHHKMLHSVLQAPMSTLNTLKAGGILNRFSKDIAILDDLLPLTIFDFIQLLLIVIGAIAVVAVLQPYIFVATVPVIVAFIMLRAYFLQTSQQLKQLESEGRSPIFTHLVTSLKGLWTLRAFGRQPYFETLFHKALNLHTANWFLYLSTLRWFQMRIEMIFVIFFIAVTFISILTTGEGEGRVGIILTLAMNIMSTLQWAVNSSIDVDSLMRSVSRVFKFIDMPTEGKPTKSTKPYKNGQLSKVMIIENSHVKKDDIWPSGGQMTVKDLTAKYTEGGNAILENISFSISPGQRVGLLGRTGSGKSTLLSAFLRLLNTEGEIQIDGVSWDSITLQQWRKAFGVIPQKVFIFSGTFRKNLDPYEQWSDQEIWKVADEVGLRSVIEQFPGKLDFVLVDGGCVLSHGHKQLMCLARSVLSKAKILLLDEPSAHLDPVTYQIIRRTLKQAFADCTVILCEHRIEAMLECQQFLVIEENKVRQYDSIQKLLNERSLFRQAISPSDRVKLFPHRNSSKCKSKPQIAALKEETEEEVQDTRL
Description: HEK293 cells stably expressing the human TMEM16A (abc) variant and CHO cells expressing the human CFTR gene were from ChanTest. The IonWorks Barracuda (IWB) procedure and data provided are from outsourced studies performed at ChanTest (Charles River Discovery, Cleveland, OH, United States) who were blinded as to the identity of the test articles or compounds provided by Amgen.
For measuring compound effects on CFTR chloride currents, compounds were serially diluted in HEPES-buffered physiological saline to 2X final concentration allowing for an 8-point dose-response analysis. Test article concentrations were applied to naïve cells (n = 4, where n = the number of replicate wells/concentration) via steel needles, where each application will consist of addition of 20 μl of 2X concentrated test article solution to a final 40 μl volume in the extracellular well of the Population Patch ClampTM (PPC) planar electrode. After mixing (three times), duration of exposure to compound is at least 5 min. Final solutions contain 0.3% DMSO. […] The current is measured using a pulse pattern consisting of a voltage step to +60 mV, 100 ms duration; voltage ramp from +60 to −120 mV, 1000 ms; step to −120 mV, 200 ms; and step to 0 mV, 200 ms; from holding potential, −30 mV. Current amplitudes were measured at the voltage step to 0 mV. The recording procedure was as follows: extracellular buffer is loaded into the PPC plate wells (11 μl per well). Cell suspension was pipetted into the wells (9 μl per well) of the PPC planar electrode. After establishment of a whole-cell configuration via amphotericin patch perforation similar to that described earlier, membrane currents were recorded using the patch clamp amplifier in the IonWorks^TM Barracuda system. Two recordings (scans) were then performed, one scan before and a second scan 5 min after test article (TA) application. […] Data acquisition and analyses were performed using the IonWorks Barracuda^TM system operation software (version 2.0.2). The decrease in current amplitude after test article application was used to calculate the percent block relative to control. […] Inhibition effect was calculated as: % Inhibition = (1 – ITA/IBaseline) × 100%, where IBaseline and ITA were the currents measured in control (before addition of a test article) and in the presence of a test article, respectively.

| Compound | IC50 (hTMEM16A (abc)) [µM] | IC50 [1] [µM] | further results |
| --- | --- | --- | --- |
| O=C(Nc1ccccc1C(=O)Nc1nnc(C(F)(F)F)s1)c1ccccc1Cl [CID# 2806957] | – | – | IC50 (TMEM16A (acd)): 0.67 µM |
| O=C(Nc1ccccc1)c1cc(Cl)ccc1O [Cpd 6] | 1.04 | 11.8 | IC50 Ratio, Wnt/TMEM16A [2]: 11.36 |
| CC(=O)c1ccc(NC(=O)c2cc(Cl)ccc2O)cc1 [Cpd 7] | 2.62 | 6.42 | IC50 Ratio, Wnt/TMEM16A [2]: 2.45 |
| CS(=O)(=O)c1ccc(NC(=O)c2cc(Cl)ccc2O)c(Cl)c1 [Cpd 8] | 4.72 | 7.66 | IC50 Ratio, Wnt/TMEM16A [2]: 1.62 |
| O=C(Nc1c(Cl)cccc1Cl)c1cc(Cl)ccc1O [Cpd 15] | – | > 12 | – |
| O=C(Nc1c(F)cccc1F)c1cc(Cl)ccc1O [Cpd 18] | 13.4 | > 12 | – |
| CC(C)(C)NCC(O)c1ccc(O)c(CO)c1 (centres unmarked) [Salbutamol, salbutamol] | – | – | EC50 (human bronchial rings; Homo sapiens, 10 μM histamine, read-out: EC50 bronchodilating histamine precontracted human airways): 0.119 µM; time to open airways (human bronchial rings; summary): < 7 min |
| NCCNCCNC(=O)c1cc2ccccc2cc1O [compound 111758] | 0.091 ± 0.028 | – | – |
| CC1(C)C(O)C1C#Cc1ccccc1 (centres unmarked) [compound 598689] | 0.466 ± 0.101 | – | – |
| CCCn1c(SCC(=O)NCC(F)(F)F)nc2ccccc2c1=O [compound 2100101] | 3.33 | – | – |
| Cc1ccc(-c2nnn(CC(=O)N(c3cccc(C(F)(F)F)c3)C(C(=O)NC(C)(C)C)c3cccs3)n2)cc1 (centres unmarked) [compound 3179204] | 0.334 | – | – |
| CFTRinh-172 | – | – | effect on CFTR chloride current (human CFTR): fully inhibited |
